Results taken from the OPERA property sets (Mansouri et al. 2018).

conditions: not given

| SMILES | boiling point | melting point | log10 vapour pressure (mmHg) | ready biodegradability | log10 Henry constant (atm·m³/mol) | log10 Koc (L/kg) | log10 biodegradation half-life (days) |
| --- | --- | --- | --- | --- | --- | --- | --- |
| COC(=O)c1cc(C)ccc1O | 244 °C | -1 °C |  |  |  |  |  |
| Brc1ccc2c(c1)Cc1ccccc1-2 |  | 114 °C |  |  |  |  |  |
| O=C1CN(/N=C/c2ccc([N+](=O)[O-])o2)C(=O)N1CN1CCOCC1 |  | 206 °C |  |  |  |  |  |
| COc1cc(O)c(C=O)c(OC)c1 |  | 70 °C |  |  |  |  |  |
| O=C(O)CCC(=O)Nc1ccc(S(=O)(=O)Nc2nccs2)cc1 |  | 194 °C |  |  |  |  |  |
| CC(C)c1ccccc1C(C)C | 204 °C | -57 °C | -0.441 | not readily biodegradable |  |  |  |
| CCCCCCC(O)C(=O)O (stereo not drawn) |  | 70 °C |  |  |  |  |  |
| NC(=O)C(Cl)Cl | 234 °C | 99.4 °C |  |  |  |  |  |
| C=CC(=O)NC(C)C |  | 64 °C |  |  |  |  |  |
| CCCCCCCCCCCCCCCC#N | 333 °C | 31 °C |  |  |  |  |  |
| C=CC[C@H](O)CCC | 152 °C |  |  |  |  |  |  |
| CCCC/C=C\CCCCCCCCCC=O | 250 °C |  |  |  |  |  |  |
| N#C[C@H](O[C@@H]1O[C@H](CO[C@@H]2O[C@H](CO)[C@@H](O)[C@H](O)[C@H]2O)[C@@H](O)[C@H](O)[C@H]1O)c1ccccc1 |  | 224 °C |  |  |  |  |  |
| CC(C)=CCCC(C)CC(=O)O (stereo not drawn) |  | 257 °C |  |  |  |  |  |
| BrCC(Br)(Br)Br |  | 0 °C |  |  |  |  |  |
| FC(F)(F)C(F)(F)C(F)(F)C(F)(F)C(F)(F)C(F)(F)C(F)(F)C(F)(F)C(F)(F)C(F)(F)I | 195 °C | 66 °C |  |  |  |  |  |
| CC1Cc2ccccc2C1 | 195 °C |  |  |  |  |  |  |
| Oc1ccc([C@H](O)[C@H]2CCCCN2)cc1O |  | 204 °C |  |  |  |  |  |
| CCC(=O)N(CC)CC | 191 °C |  |  |  |  |  |  |
| O=[N+]([O-])c1ccc(Nc2ccccc2)c([N+](=O)[O-])c1 |  | 159 °C | -8.52 |  |  |  |  |
| CCCCCCCCCC=O | 208 °C | -5 °C | -0.987 | readily biodegradable | -2.74 |  |  |

| SMILES | boiling point | melting point | log10 vapour pressure (mmHg) | ready biodegradability | log10 Henry constant (atm·m³/mol) | log10 Koc (L/kg) | log10 biodegradation half-life (days) |
| --- | --- | --- | --- | --- | --- | --- | --- |
| O=C(O)c1c(F)c(F)c(F)c(F)c1C(=O)O |  | 163 °C |  |  |  |  |  |
| CNCCc1ccccc1 | 206 °C |  |  |  |  |  |  |
| CC(C)=CCC/C(C)=C/CO | 228 °C |  | -1.52 | readily biodegradable |  |  |  |
| CC(C)(N=C=O)c1ccc(C(C)(C)N=C=O)cc1 |  |  | -3.12 |  |  |  |  |
| COc1c(Cl)c(C)c2c(c1Cl)OC(=O)c1c(C)c(Cl)c(O)c(Cl)c1O2 |  | 232 °C |  |  |  |  |  |
| NCC(=O)O |  |  |  | readily biodegradable |  |  |  |
| CCN(CC)CCOCCO | 222 °C |  |  |  |  |  |  |
| O=C(CN1CCN(Cc2ccc3c(c2)OCO3)CC1)N1c2ccccc2Sc2ccccc21 |  | 142 °C |  |  |  |  |  |
| CCCCC(=O)OCC | 146 °C | -91.2 °C | 0.681 |  |  | 1.97 |  |
| FC(F)C(F)(F)C(F)Cl (stereo not drawn) | 28.1 °C | 85 °C |  |  |  |  |  |
| Fc1cccc2ccccc12 | 215 °C | -9 °C |  |  |  |  |  |
| Cc1ccc(S(=O)(=O)C2(C(=O)OC(C)C)CC2)cc1 |  | 65.5 °C |  |  |  |  |  |
| C[C@H]1C[C@H]2[C@@H]3CCC4=CC(=O)C=C[C@]4(C)[C@H]3C(=O)C[C@]2(C)[C@@]1(O)C(=O)CO |  | 202 °C |  |  |  |  |  |
| CC/C(=C(/CC)c1ccc(OC)cc1)c1ccc(OC)cc1 |  | 124 °C |  |  |  |  |  |
| ClCCCOCCCCl | 216 °C |  |  |  |  |  |  |
| N#CCCO | 221 °C | -46 °C | -1.1 |  |  |  |  |
| CCC(C)(c1ccc(O)cc1)c1ccc(O)cc1 |  | 120 °C |  |  |  |  |  |
| FC(Cl)(Cl)C(F)(Cl)Cl | 93 °C | 26 °C | 1.7 | not readily biodegradable |  |  |  |
| NC(=O)c1cc(Cl)cc(Cl)c1N |  | 162 °C |  |  |  |  |  |
| CC(F)(Cl)CCl (stereo not drawn) | 88.6 °C | -91.7 °C |  |  |  |  |  |
| C=CCN1CCCC1CNC(=O)c1cc(S(=O)(=O)NC)c(N)cc1OC (stereo not drawn) |  | 169 °C |  |  |  |  |  |

| SMILES | boiling point | melting point | log10 vapour pressure (mmHg) | ready biodegradability | log10 Henry constant (atm·m³/mol) | log10 Koc (L/kg) | log10 biodegradation half-life (days) |
| --- | --- | --- | --- | --- | --- | --- | --- |
| O=c1c2ccccc2ccc2ccccc12 |  | 88.5 °C |  |  |  |  |  |
| Nc1c(Br)cc(Br)c2c1C(=O)c1ccccc1C2=O |  | 221 °C |  |  |  |  |  |
| CC(C)OC(=O)[C@H](C)N(C(=O)c1ccccc1)c1ccc(F)c(Cl)c1 |  | 78.5 °C |  |  |  |  |  |
| O=CCc1ccccc1 | 195 °C | 33.5 °C | -0.407 |  |  |  |  |
| c1ccc(CN(CC2=NCCN2)c2ccccc2)cc1 |  | 120 °C |  |  |  |  |  |
| CCCCCCCCCC | 174 °C | -29.7 °C | 0.155 | readily biodegradable |  |  | 0.954 |
| CCCCCCCCCC(=O)N(CCO)CCO |  |  |  | readily biodegradable |  |  |  |
| O=C(NC(=O)c1c(F)cccc1F)Nc1ccc(CO/N=C(\c2ccc(Cl)cc2)C2CC2)cc1 |  | 144 °C |  |  |  |  |  |
| CCCCN(CCCC)SN(C)C(=O)Oc1cccc2c1OC(C)(C)C2 |  |  | -6.51 |  |  |  |  |
| CCCOc1ccc2[nH]c(NC(=O)OC)nc2c1 |  | 230 °C |  |  |  |  |  |
| FC(F)(Cl)CCl | 46.8 °C | -101 °C | 2.53 |  |  |  |  |
| CCCCCCC(C(=O)OCC)C(=O)OCC | 269 °C |  |  |  |  |  |  |
| c1ccc(CN(Cc2ccccc2)c2ccccc2)cc1 |  | 69 °C |  |  |  |  |  |
| NC(=O)Nc1ccc(Br)cc1 | 260 °C | 226 °C |  |  |  | 2.06 |  |
| O=[N+]([O-])c1c(F)c(F)c(F)c(F)c1F | 160 °C |  |  |  |  |  |  |
| NS(=O)(=O)c1cc2c(cc1Cl)CN(C1CCCCC1)C2=O |  | 267 °C |  |  |  |  |  |
| Nc1c(Cl)cc(Cl)cc1Br | 273 °C | 83.5 °C |  |  |  |  |  |
| Cc1c(Cl)cccc1[N+](=O)[O-] | 238 °C | 37.8 °C |  |  |  |  |  |
| CNC(=O)Oc1cccc(N=CN(C)C)c1.Cl |  |  | -7.92 |  |  |  |  |
| CCC(C)(CC)C(=O)O | 207 °C |  |  |  |  |  |  |

same assay, conditions: fish

| SMILES | log10 BCF | log10 biotransformation half-life (days) |
| --- | --- | --- |
| CC1(C)[C@H](C(=O)OCc2cccc(Oc3ccccc3)c2)[C@@H]1C=C(Cl)Cl (single isomer, unassigned) | 2.65 | 0.37 |
| Clc1ccc(-c2c(Cl)cc(Cl)c(Cl)c2Cl)cc1Cl |  | 2.57 |
| Oc1c(Br)cc(Br)cc1Br | 2.71 |  |
| CCc1ccc2ccc3cccc4ccc1c2c34 |  | 0.24 |
| CC(C)c1ccccc1C(C)C | 2.14 |  |
| FC(Cl)(Cl)C(F)(Cl)Cl | 1.77 |  |
| CCCCc1ccc2cc(C)c(C)cc2c1 |  | 0.24 |
| Cc1c(Cl)cccc1[N+](=O)[O-] | 1.99 |  |
